Measurements published in publication PMC5159840, “A Clickable Analogue of Ketamine Retains NMDA Receptor Activity, Psychoactivity, and Accumulates in Neurons” (Scientific Reports, 2016).

Columns and labels:
[1] = test system: T1, NMDA receptor (NMDAR); experiment: whole-cell patch clamp of NMDA-evoked currents, concentration-response at -70 mV; also NMDAR EPSCs; format: cell-based, Rattus norvegicus
T1 construct: gene Grin1; native receptor in dissociated cultures of rat hippocampal neurons

[2] = test system: T1, NMDA receptor (NMDAR); experiment: whole-cell patch clamp of NMDA-evoked currents, concentration-response at -70 mV; format: cell-based, Rattus norvegicus

| Structure (SMILES) | IC50 [1] [nM] | IC50 [2] [nM] |
| --- | --- | --- |
| C#CCCCNC1(c2ccccc2Cl)CCCCC1=O (racemic) [compound 1, A-NK] | 1800 |  |
| CNC1(c2ccccc2Cl)CCCCC1=O (racemic) [ketamine] |  | 400 |
| NC1(c2ccccc2Cl)CCCCC1=O (racemic) [norketamine] | 2000 |  |
